# Patent US8268747B2, “Safening penoxsulam herbicide injury in water-seeded, direct-seeded and transplanted paddy rice” (Dow AgroSciences, LLC., priority 2009, dated 2012)
# Legend:
# [1] = test system: Oryza sativa 'M205' (rice); assay: Rice % stand reduction, postemergence safening in water-seeded rice
# Protocol: (§1) Evaluation of Postemergence Herbicidal Safening in Water-Seeded Rice
# (§2) Pre-germinated rice was applied directly into a flooded rice paddy. The rice paddy was prepared as per normal cultural practices, by applying appropriate fertilizers, working and leveling the ground before flooding, with water flooded across the entire field to a depth of 1 to 5 inches prior to seeding with the pre-germinated rice seed.
# (§3) Treatments consisted of penoxsulam and clomazone applied alone and in combination directly into the flooded rice paddy as granular formulated treatments. These treatments could also be applied as liquid applications directly into the water. Clomazone was applied the day of rice seeding, at 13 days after rice seeding, and in combination with penoxsulam at 13 days after rice seeding. Penoxsulam was applied alone and in combination with clomazone at 13 days after rice seeding.
# (§4) Colby's equation was used to determine the herbicidal effects expected from the mixtures (Colby, S. R. 1967. Calculation of the synergistic and antagonistic response of herbicide combinations. Weeds 15:20-22.).
# (§5) The following equation was used to calculate the expected activity of mixtures containing two active ingredients, A and B: Expected=A+B−(A×B/100)
# (§6) A=observed efficacy of active ingredient A at the same concentration as used in the mixture.
# (§7) B=observed efficacy of active ingredient B at the same concentration as used in the mixture.
# [2] = test system: Echinochloa oryzoides (watergrass); assay: % visual weed control in water-seeded rice, ECHOR; type: in vivo; conditions: 13 days after seeding, 27 days after treatment
# Protocol: as §2, §3, §4, §5, §6, §7
# [3] = test system: Cyperus difformis (smallflower umbrella sedge); assay: % visual weed control in water-seeded rice, CYPDI; type: in vivo; conditions: 13 days after seeding, 27 days after treatment
# Protocol: as §2, §3, §4, §5, §6, §7
# [4] = test system: Oryza sativa 'M205' (rice); conditions: in vivo
# Protocol: as §1, §2, §3, §4, §5, §6, §7
# [5] = test system: Leptochloa fascicularis (sprangletop); assay: % visual weed control in water-seeded rice, LEFFA; type: in vivo; conditions: 13 days after seeding, 27 days after treatment
# Protocol: as §2, §3, §4, §5, §6, §7
structure (smiles),measurement,setting,value
"CC1(C)CON(Cc2ccccc2Cl)C1=O [Clomazone, 2-[(2-chlorophenyl)methyl]-4,4-dimethyl-3-isoxazolidinone]",effect on the rice stand (text summary of Table 2),[1]; clomazone alone,negligible effect
same,Rice % Stand Reduction Ratings ORYSA (3) Exp,[1]; in vivo,3%
same,Rice % Stand Reduction Ratings ORYSA (3) Obs,[1]; in vivo,3%
same,% Weed Control Ratings ECHOR (1) Obs,[2]; clomazone 224 g ai/ha alone,93%
same,% Weed Control Ratings ECHOR (1) Obs,[2]; clomazone 336 g ai/ha alone,96%
same,% Weed Control Ratings ECHOR (1) Obs,[2]; clomazone 448 g ai/ha alone,97%
same,% Weed Control Ratings CYPDI (3) Obs,[3]; clomazone 224 g ai/ha alone,73%
same,% Weed Control Ratings CYPDI (3) Obs,[3]; clomazone 336 g ai/ha alone,88%
same,% Weed Control Ratings CYPDI (3) Obs,[3]; clomazone 448 g ai/ha alone,87%
same,visual injury to rice (text summary of Table 1),[4],0-3%
same,% Weed Control Ratings LEFFA (2) Obs,[5]; clomazone 224 g ai/ha alone,98%
same,% Weed Control Ratings LEFFA (2) Obs,[5]; clomazone 336 g ai/ha alone,99%
same,% Weed Control Ratings LEFFA (2) Obs,[5]; clomazone 448 g ai/ha alone,99%
"COc1cnc(OC)n2nc(NS(=O)(=O)c3c(OCC(F)F)cccc3C(F)(F)F)nc12 [Penoxsulam, 2-(2,2-difluoroethoxy)-N-(5,8-dimethoxy[1,2,4]triazolo[1,5-c]pyrimidin-2-yl)-6-(trifluoromethyl)benzenesulfonamide]",Rice % Stand Reduction Ratings ORYSA (1) Exp,[1]; in vivo,27%
same,Rice % Stand Reduction Ratings ORYSA (1) Obs,[1]; in vivo,27%
same,Rice % Stand Reduction Ratings ORYSA (2) Exp,[1]; in vivo,33%
same,Rice % Stand Reduction Ratings ORYSA (2) Obs,[1]; in vivo,33%
same,Rice % Stand Reduction Ratings ORYSA (3) Exp,[1]; in vivo,33%
same,Rice % Stand Reduction Ratings ORYSA (3) Obs,[1]; in vivo,33%
same,impact on the rice stand (text summary of Table 2),[1]; in vivo,slight negative impact
same,% Weed Control Ratings ECHOR (1) Obs,[2]; penoxsulam 40 g ai/ha alone,98%
same,% Weed Control Ratings CYPDI (3) Obs,[3]; penoxsulam 40 g ai/ha alone,99%
same,Rice % Visual Injury Ratings ORYSA (1) Obs,[4],12%
same,Rice % Visual Injury Ratings ORYSA (2) Obs,[4],9%
same,Rice % Visual Injury Ratings ORYSA (3) Obs,[4],5%
same,injury to rice (text summary of Table 1),[4],slight injury
same,% Weed Control Ratings LEFFA (2) Obs,[5]; penoxsulam 40 g ai/ha alone,74%
